# Test results as given in US10640495B2, “Heterocycle derivatives having TrkA inhibitory activity” (Shionogi & Co., Ltd., priority 2015, dated 2020).
# Target: human TrkA (Homo sapiens (Human), UniProt P04629)
# Experiment: Human TrkA inhibition assay (Test Example 2)
# Format: biochemical
# Details: Table 152, human TrkA inhibition; read-out: IC50_nM
# Method in brief: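 Recombinant TrkA (1 nmol/L) was preincubated 15 min at room temperature with compound in HEPES/MgCl2/DTT buffer, then reacted with FL-peptide 27 (1.5 μmol/L) and ATP (500 μmol/L) for 120 min at 37 °C. After EDTA stop, substrate phosphorylation was read by microfluidic mobility shift. IC50 came from logistic regression over 3-fold dilution series.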
# Sequence of human TrkA (P04629 440-796): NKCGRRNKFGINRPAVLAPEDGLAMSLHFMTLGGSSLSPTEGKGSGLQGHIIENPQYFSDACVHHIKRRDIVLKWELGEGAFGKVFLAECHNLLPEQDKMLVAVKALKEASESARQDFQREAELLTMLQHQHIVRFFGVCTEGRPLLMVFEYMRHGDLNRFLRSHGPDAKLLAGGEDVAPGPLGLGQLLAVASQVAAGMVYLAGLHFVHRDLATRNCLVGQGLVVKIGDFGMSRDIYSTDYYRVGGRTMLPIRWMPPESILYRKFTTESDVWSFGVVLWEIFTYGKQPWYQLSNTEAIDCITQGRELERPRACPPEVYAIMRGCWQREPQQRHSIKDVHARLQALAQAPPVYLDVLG
row,Structure (SMILES),IC50
1,COCCN1C[C@@H](NC(=O)Nc2c(C)c(-c3cnc(CO)nc3)nn2-c2ccccc2)[C@H](c2ccc(F)c(F)c2)O1 (racemic) [Compound I-34],< 100 nM
2,COCCN1C[C@@H](NC(=O)Nc2c(C)c(C3=CCN(C(=O)OC(C)(C)C)CC3)nn2-c2ccccc2)[C@H](c2ccnc(F)c2)O1 (racemic) [Compound I-41],< 100 nM
3,COCCN1C[C@@H](NC(=O)Nc2c(C)c(-c3cnn(C)c3)nn2-c2ccccc2)[C@H](c2ccnc(Cl)c2)O1 (racemic) [Compound I-9],< 100 nM

# Same assay, conditions: Table 153, human TrkA inhibition; read-out: IC50
row,Structure (SMILES),IC50
1,CNC(=O)c1cc(-c2nn(-c3ccccc3)c(NC(=O)N[C@@H]3CN(Cc4ccc(C#N)o4)O[C@H]3c3ccc(F)c(F)c3)c2C)cn(C)c1=O (racemic) [Compound I-150],< 100 nM
2,CCOc1ncc(-c2nn(-c3ccccc3)c(NC(=O)N[C@H]3CN(CCOC)O[C@@H]3c3ccnc(F)c3)c2C)cn1 [Compound I-130],> 1000 nM
3,COCCNC(=O)c1ncc(-c2nn(-c3ccccc3)c(NC(=O)N[C@@H]3CN(CCOC)O[C@H]3c3ccnc(F)c3)c2C)cc1C (racemic) [Compound I-173],< 100 nM
4,COCCN1C[C@@H](NC(=O)Nc2c(C)c(-c3cc(CO)c(=O)n(C)c3)nn2-c2ccccc2)[C@H](c2cnc(F)c(F)c2)O1 (racemic) [Compound I-81],< 100 nM

# Now from value to compound:
row,IC50,Structure (SMILES)
1,< 100 nM,COCCN1C[C@@H](NC(=O)Nc2c(C)c(-c3cnc(C4CC4)nc3)nn2-c2ccccc2)[C@H](c2ccnc(F)c2)O1 (racemic) [Compound I-115]
2,< 100 nM,COCCN1C[C@@H](NC(=O)Nc2c(C)c(-c3cnc(OC)c(C(N)=O)c3)nn2-c2ccccc2)[C@H](c2cnc(F)c(F)c2)O1 (racemic) [Compound I-101]
3,< 100 nM,COCCN1C[C@@H](NC(=O)Nc2c(C)c(-c3cnc4c(c3)oc(=O)n4C)nn2-c2ccccc2)[C@H](c2cnc(F)c(F)c2)O1 (racemic) [Compound I-123]
4,< 100 nM,COCCN1C[C@@H](NC(=O)Nc2c(C)c(-c3cnc4c(c3)nnn4C)nn2-c2ccccc2)[C@H](c2cccc(F)c2)O1 (racemic) [Compound I-142]
5,< 100 nM,CCNC(=O)c1ncc(-c2nn(-c3ccccc3)c(NC(=O)N[C@@H]3CN(CCOC)O[C@H]3c3ccnc(F)c3)c2C)cc1C (racemic) [Compound I-167]

# Same assay, conditions: Table 154, human TrkA inhibition; read-out: IC50
row,Structure (SMILES),IC50
1,COCCN1C[C@@H](NC(=O)Nc2c(C)c(-c3cnc(N4CC(O)C4)nc3)nn2-c2ccccc2)[C@H](c2ccc(F)c(F)c2)O1 [Compound I-209],< 100 nM
2,COCC[C@@H]1C[C@@H](NC(=O)Nc2c(C)c(-c3cnc4c(c3)c(C)nn4C)nn2-c2ccccc2)[C@H](c2ccnc(F)c2)O1 [Compound I-274],< 100 nM
3,COCC[C@@H]1C[C@@H](NC(=O)Nc2c(C)c(-c3cc(C(=O)OC)c(=O)n(C)c3)nn2-c2ccccc2)[C@H](c2ccnc(F)c2)O1 [Compound I-251],< 100 nM
4,COCCN1C[C@@H](NC(=O)Nc2c(C)c(-n3cnc(C)c3)nn2-c2ccccc2)[C@H](c2cnc(F)c(F)c2)O1 (racemic) [Compound I-297],< 100 nM
5,CNc1ncc(-c2nn(-c3ccccc3)c(NC(=O)N[C@@H]3C[C@@H](CCOC)O[C@H]3c3ccnc(F)c3)c2C)cn1 [Compound I-292],< 100 nM

# More lines, now with the values ahead:
row,IC50,Structure (SMILES)
1,< 100 nM,COCCN1C[C@@H](NC(=O)Nc2c(C)c(-c3ccnc(C(=O)NO)c3)nn2-c2ccccc2)[C@H](c2cnc(F)c(F)c2)O1 [Compound I-231]
2,< 100 nM,COCC[C@@H]1C[C@@H](NC(=O)Nc2c(C)c(-c3cnc(N4CC(O)C4)nc3)nn2-c2ccccc2)[C@H](c2ccc(F)c(F)c2)O1 (racemic) [Compound I-242]
3,< 100 nM,COCCN1C[C@@H](NC(=O)Nc2c(C)c(-c3ccc(C(=O)NOC)nc3)nn2-c2ccccc2)[C@H](c2ccc(F)c(F)c2)O1 (racemic) [Compound I-234]
4,< 100 nM,COCCN1C[C@@H](NC(=O)Nc2c(C)c(-c3cnc4c(ccc(=O)n4C)c3)nn2-c2ccccc2)[C@H](c2ccc(F)c(F)c2)O1 [Compound I-229]
5,< 100 nM,CNC(=O)c1ncc(-c2nn(-c3ccccc3)c(NC(=O)N[C@@H]3CN(CCOC)O[C@H]3c3ccnc(F)c3)c2C)cc1F (racemic) [Compound I-256]

# Same assay, conditions: Table 155, human TrkA inhibition; read-out: IC50
row,Structure (SMILES),IC50
1,COCCN1C[C@@H](NC(=O)Nc2c(C)c(-c3cnc(OC4CC4)nc3)nn2-c2ccccc2)[C@H](c2ccnc(F)c2)O1 (racemic) [Compound I-425],< 100 nM
2,COCCN1C[C@@H](NC(=O)Nc2c(C)c(-c3cnn(C)c3)nn2-c2cccc(F)c2)[C@H](c2ccc(F)c(F)c2)O1 [Compound I-510],< 100 nM
3,COCCN1C[C@@H](NC(=O)Nc2c(C)c(-c3cnc4c(c3)nc(C(=O)NC3CCN(C)CC3)n4C)nn2-c2ccccc2)[C@H](c2ccnc(F)c2)O1 (racemic) [Compound I-404],< 100 nM
4,COCCN1C[C@@H](NC(=O)Nc2c(C)c(-c3cnc(N4C[C@H]5COC[C@@H](C4)N5C)nc3)nn2-c2ccccc2)[C@H](c2ccnc(F)c2)O1 (racemic) [Compound I-422],< 100 nM
5,COCCN1C[C@@H](NC(=O)Nc2c(C)c(-c3cnc(C4[C@@H]5CC[C@H]4COC5)nc3)nn2-c2ccccc2)[C@H](c2ccnc(F)c2)O1 (mixture of isomers) [Compound I-438],< 100 nM
6,COCCN1C[C@@H](NC(=O)Nc2c(C)c(-c3ccc(N4C[C@H]5COC[C@@H](C4)N5C)nc3)nn2-c2ccccc2)[C@H](c2ccnc(F)c2)O1 (racemic) [Compound I-396],< 100 nM

# Further lines, results first:
row,IC50,Structure (SMILES)
1,> 1000 nM,COCCN1C[C@@H](NC(=O)Nc2c(C)c(-c3cnn(C)c3)nn2CCO)[C@H](c2ccc(F)c(F)c2)O1 [Compound I-493]
2,< 100 nM,COCCN1C[C@@H](NC(=O)Nc2c(C)c(-c3cnc4c(c3)ncn4C3CCN(C)CC3)nn2-c2ccccc2)[C@H](c2ccnc(F)c2)O1 (racemic) [Compound I-426]
3,< 100 nM,COCCN1C[C@@H](NC(=O)Nc2c(C)c(-c3cnc4c(c3)nc(C(=O)N3CCN(C)CC3)n4C)nn2-c2ccccc2)[C@H](c2ccnc(F)c2)O1 (racemic) [Compound I-403]
4,< 100 nM,COCCN1C[C@@H](NC(=O)Nc2c(C)c(-c3cnc(N4CC(O)C4)nc3)nn2-c2ccccc2)[C@H](c2cc(F)nc(F)c2)O1 (racemic) [Compound I-321]
5,< 100 nM,COCCN1C[C@@H](NC(=O)Nc2c(C)c(-c3cnc(C(=O)OC)c(CF)c3)nn2-c2ccccc2)[C@H](c2ccnc(F)c2)O1 (racemic) [Compound I-435]

# Same assay, conditions: Table 156, human TrkA inhibition; read-out: IC50
row,Structure (SMILES),IC50
1,CCN1C[C@@H](NC(=O)Nc2c(C)c(-c3cnc(OC)c(C(=O)NC)c3)nn2-c2ccccc2)[C@H](c2ccc(F)cc2)O1 (racemic) [Compound I-570],< 100 nM
2,CCN1C[C@@H](NC(=O)Nc2c(C)c(-c3ccn(C)c(=O)c3)nn2-c2ccccc2)[C@H](c2ccc(F)c(F)c2)O1 (racemic) [Compound I-543],< 100 nM
3,COCC[C@@H]1C[C@@H](NC(=O)Nc2c(C)c(-c3cnc(N4CC(OC)C4)nc3)nn2-c2ccccc2)[C@H](c2ccnc(F)c2)O1 [Compound I-553],< 100 nM
4,CCOc1nn(-c2ccccc2)c(NC(=O)N[C@@H]2CN(CC)O[C@H]2c2ccc(F)c(F)c2)c1C (racemic) [Compound I-542],< 100 nM

# Next, values leading:
row,IC50,Structure (SMILES)
1,< 100 nM,COCCN1C[C@@H](NC(=O)Nc2c(C)c(-c3ccnc(C)c3)nn2-c2ccccc2)[C@H](c2ccnc(F)c2)O1 (racemic) [Compound I-529]
2,> 1000 nM,CCN1C[C@H](NC(=O)Nc2c(C)c(OCC3CCN(C)CC3)nn2-c2ccccc2)[C@@H](c2ccc(F)c(F)c2)O1 [Compound I-535]
3,< 100 nM,Cc1c(OCC2CCN(C)CC2)nn(-c2ccccc2)c1NC(=O)N[C@@H]1CN(CCF)O[C@H]1c1ccc(F)c(F)c1 (racemic) [Compound I-567]

# Same assay, conditions: Table 157, human TrkA inhibition; read-out: IC50
row,Structure (SMILES),IC50
1,CCN1C[C@@H](NC(=O)Nc2c(C)c(OCC(=O)NC)nn2-c2ccccc2)[C@H](c2ccc(F)c(F)c2)O1 (racemic) [Compound I-646],< 100 nM
2,CNC(=O)c1cc(-c2nn(-c3ccccc3)c(NC(=O)N[C@@H]3CN(CCC(F)(F)F)O[C@H]3c3ccc(F)c(F)c3)c2C)cnc1OC (racemic) [Compound I-623],100 to 1000 nM

# Continued, values first:
row,IC50,Structure (SMILES)
1,< 100 nM,CCN1C[C@@H](NC(=O)Nc2c(C)c(OCC(=O)NCCO)nn2-c2ccccc2)[C@H](c2ccc(F)c(F)c2)O1 (racemic) [Compound I-651]
2,< 100 nM,CCN1C[C@@H](NC(=O)Nc2c(C)c(-c3cnc(C(N)=O)c(F)c3)nn2-c2ccccc2)[C@H](c2ccc(F)c(F)c2)O1 (racemic) [Compound I-612]

# Same assay, conditions: human TrkA 1 nmol/L, ATP 500 μmol/L, 120 min at 37° C.; read-out: IC50 values (TrkA phosphorylation inhibition)
row,Structure (SMILES),IC50
1,COCCN1C[C@@H](NC(=O)Nc2c(C)c(-c3cnc(N4CC(OC)C4)nc3)nn2-c2ccccc2)[C@H](c2ccnc(F)c2)O1 [Compound I-555],0.93 nM
2,CCN1C[C@@H](NC(=O)Nc2c(C)c(OCC(N)=O)nn2-c2ccccc2)[C@H](c2ccc(F)c(F)c2)O1 (racemic) [Compound I-645],68 nM
3,COCCN1C[C@@H](NC(=O)Nc2c(C)c(OCCCN(C)C)nn2-c2ccccc2)[C@H](c2ccc(F)c(F)c2)O1 [Compound I-552],1.7 nM
4,COCCN1C[C@@H](NC(=O)Nc2c(C)c(-c3ccnc(C(=O)O)c3)nn2-c2ccccc2)[C@H](c2ccc(F)c(F)c2)O1 (racemic) [Compound I-190],2.1 nM
5,COCC[C@@H]1C[C@@H](NC(=O)Nc2c(C)c(-c3cnc4c(cnn4C)c3)nn2-c2ccccc2)[C@H](c2ccnc(F)c2)O1 [Compound I-236],1.4 nM

# More lines, now with the values ahead:
row,IC50,Structure (SMILES)
1,8.2 nM,CNC(=O)c1cc(-c2nn(-c3ccccc3)c(NC(=O)N[C@@H]3CN(CCOC)O[C@H]3c3ccnc(F)c3)c2C)nn(C)c1=O (racemic) [Compound I-302]
2,1.5 nM,COCCN1C[C@@H](NC(=O)Nc2c(C)c(-c3cnc4c(c3)NCC(=O)N4)nn2-c2ccccc2)[C@H](c2ccnc(F)c2)O1 (racemic) [Compound I-356]
3,2.4 nM,COCCN1C[C@@H](NC(=O)Nc2c(C)c(-c3cnc(OC)nc3)nn2-c2ccccc2)[C@H](c2ccnc(F)c2)O1 [Compound I-322]
